Laboratory results reported in patent US4195179A, “5-(Indol-3-ylmethylene)-1,3-dimethyl-2-methylamino-4-imidazolidinone” (Hoffmann-La Roche Inc., priority 1976, dated 1980).

Assays:
[1] = test system: tetrabenazine induced ptosis; assay: antagonism of tetrabenazine induced ptosis; format: in vivo; conditions: Mus musculus, 1 h; oral, male mice; tetrabenazine methanesulfonate 100 mg/kg one hour after test compound; ptosis observed one hour later
Experimental: Groups of 10 mice each are administered tetrabenazine methanesulfonate at a dose of 100 mg/kg., one hour after oral administration of the test compound. One hour after tetrabenazine administration, each mouse is observed for the presence or absence of ptosis. An ED50 value for the antagonism of tetrabenazine induced ptosis is then determined.

acute toxicity (LD50) = conditions: mouse, in vivo

Structure (SMILES) | ED50 [1] [mg/kg] | LD50 (acute toxicity (LD50); ip) [mg/kg] | LD50 (acute toxicity (LD50); po) [mg/kg]
C/N=C1/N(C)C(=O)/C(=C\c2c[nH]c3ccccc23)N1C [(E)-5-(indol-3-ylmethylene)-1,3-dimethyl-2-methylimino-4-imidazolidinone] | 5 | 670 | 900
COc1ccc2c3c([nH]c2c1)C(C)=NCC3 [harmaline] |  | 120 | 380
C#CCN(C)Cc1ccccc1 [pargyline] |  | 390 | 720
